The target of test [1] is T1, Transient receptor potential cation channel subfamily V member 1 (Rattus norvegicus, UniProt O35433). The test can be described thus: In vitro antagonistic activity on VR1 receptor in [Ca2+] influx assay in rat dorsal root ganglion. The class given is functional, tissue-based.
The target of test [2] is T1, Transient receptor potential cation channel subfamily V member 1. In words: In vitro agonistic activity on VR1 receptor in [Ca2+] influx assay in rat dorsal root ganglion (NE: not effective at 30 uM). The class given is functional, tissue-based.

pIC50: −log10 of the molar value.

For 18 molecules, IC50 results are on record in ChEMBL document CHEMBL1144279, “Biarylcarboxybenzamide derivatives as potent vanilloid receptor (VR1) antagonistic ligands” (Bioorg Med Chem Lett, 2005).

T1 sequence (O35433 whole entry): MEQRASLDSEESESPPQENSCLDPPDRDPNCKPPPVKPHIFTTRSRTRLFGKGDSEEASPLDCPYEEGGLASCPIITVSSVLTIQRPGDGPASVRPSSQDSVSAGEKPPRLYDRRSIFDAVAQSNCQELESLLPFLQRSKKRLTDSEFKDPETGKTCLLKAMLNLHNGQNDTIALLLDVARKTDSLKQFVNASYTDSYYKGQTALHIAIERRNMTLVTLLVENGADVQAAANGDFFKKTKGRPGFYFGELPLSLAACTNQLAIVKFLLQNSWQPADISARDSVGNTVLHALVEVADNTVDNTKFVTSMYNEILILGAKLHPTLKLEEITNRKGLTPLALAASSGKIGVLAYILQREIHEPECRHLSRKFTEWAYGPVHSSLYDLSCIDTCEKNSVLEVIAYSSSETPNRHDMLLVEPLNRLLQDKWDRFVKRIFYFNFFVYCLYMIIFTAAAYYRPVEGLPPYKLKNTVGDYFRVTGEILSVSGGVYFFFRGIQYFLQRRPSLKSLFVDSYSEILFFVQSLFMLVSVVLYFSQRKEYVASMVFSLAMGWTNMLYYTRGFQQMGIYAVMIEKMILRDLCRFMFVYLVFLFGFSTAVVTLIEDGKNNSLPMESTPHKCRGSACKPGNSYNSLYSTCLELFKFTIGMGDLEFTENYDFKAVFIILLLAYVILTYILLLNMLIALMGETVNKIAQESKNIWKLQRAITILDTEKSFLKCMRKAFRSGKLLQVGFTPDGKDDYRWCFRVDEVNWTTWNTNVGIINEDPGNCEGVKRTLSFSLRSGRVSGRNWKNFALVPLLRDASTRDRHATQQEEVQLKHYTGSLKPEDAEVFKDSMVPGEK

As a reminder, the pIC50 is the negative decadic logarithm of the IC50, by convention in mol/L. A low value points to a large IC50. Turning to `Cc1cccnc1-c1ccc(C(=O)Nc2ccc(C(C)(C)C)cc2)cc1`, in test [1], the pIC50 is 7.51. Also, in test [2], the IC50 entry is reported as “Not Active”.
For `CC(C)(C)c1ccc(NC(=O)c2ccc(-c3ncccc3C(F)(F)F)cc2)cc1` the same measures were 6.85 and “Not Active”.
In test [1], `CC(C)(C)c1ccc(NC(=O)c2ccc(-c3ncccn3)cc2)cc1` gave a pIC50 of 7.22. Moreover, the IC50 entry in test [2] is “Not Active”.
As to `Cc1ccc(NC(=O)c2ccc(-c3ccccn3)cc2)cc1C`, in test [1], the pIC50 was 5.70. In addition, the IC50 entry in test [2] is recorded as “Not Active”.
Taken in the same sequence, the figures for `CC(C)(C)c1ccc(NC(=O)c2ccc(-c3cnccn3)cc2)cc1` were 6.00 and “Not Active”.
For `CN(C(=O)c1ccc(-c2ccccn2)cc1)c1ccc(C(C)(C)C)cc1` the same measures were below 5.00 and “Not Active”.
For `CC(C)(C)c1ccc(NC(=O)c2ccc(-c3ncccc3[N+](=O)[O-])cc2)cc1` the same measures were 7.22 and “Not Active”.
Molecule `O=C(Nc1ccc(C(F)(F)F)cc1)c1ccc(-c2ccccn2)cc1` showed a pIC50 in test [1] of 5.10. Moreover, in test [2], the IC50 result is reported as “Not Active”.
In the case of `CC(C)(C)c1ccc(NC(=O)c2ccc(-c3ccccn3)cc2)cc1`, the pIC50 in test [1] was 7.51. The IC50 entry in test [2] is on record as “Not Active”.
Molecule `CC(C)(C)c1ccc(NC(=O)N2CCN(c3ccccn3)CC2)cc1` gave a pIC50 in test [1] of 6.82. Moreover, the IC50 result in test [2] is recorded as “Not Active”.
For `O=C(Nc1ccccc1)c1ccc(-c2ccccn2)cc1` the same measures were below 5.00 and “Not Active”.
Taken in the same sequence, the figures for `CC(C)(C)c1ccc(NC(=O)c2ccc(-c3ncccc3Cl)cc2)cc1` were 7.26 and “Not Active”.
Taken in the same sequence, the figures for `Cc1ccc(NC(=O)c2ccc(-c3ccccn3)cc2)cc1` were 5.64 and “Not Active”.
For the molecule `CC(C)c1ccc(NC(=O)c2ccc(-c3ccccn3)cc2)cc1`, the pIC50 in test [1] is 7.42. The IC50 result in test [2] is listed as “Not Active”.
Taken in the same sequence, the figures for `CC(C)(C)c1ccc(NC(=O)c2ccc(-c3ccccc3)cc2)cc1` were 5.44 and “Not Active”.
For `CC(C)(C)c1ccc(NC(=O)c2ccc(-c3ccncc3)cc2)cc1` the same measures were 6.55 and “Not Active”.
On to `CC(C)(C)c1ccc(NC(=O)c2ccc(-c3cccnc3)cc2)cc1`, for which the pIC50 in test [1] is 5.89. Moreover, the IC50 result in test [2] was “Not Active”.
Taken in the same sequence, the figures for `CC(C)(C)c1ccc(NC(=O)c2ccc(-c3cncnc3)cc2)cc1` were below 5.00 and “Not Active”.
